The values that follow come from patent US12202868B1, “Stapled and specifically targeted antimicrobial peptide” (KING SAUD UNIVERSITY, priority 2024, dated 2025).

Each structure is given as a SMILES string. Converted amounts (≈) assume the structure as drawn. Read-outs that look alike come from different tables or passages of the source. Positions of bridges follow the written chain, without caps; N, C: chain ends. Non-standard residues stand in square brackets, D forms with d. Residues, ends and D or L forms follow the SMILES beside them. S5 = C=CCCC[C@](C)(N)C(=O)O

One series concerns Bacillus subtilis. Description: microbe, parasite or virus in culture. The series is classed as cell-based. The note with it: B. subtilis, 30 μl in 6 mm well, ssTAMP 100 μg/ml, Kanamycin 10 μg/ml, 24 hours, mean±SD, n=3. On the procedure: (§1) Microbial cultures were procured from the microbiology department, College of Pharmacy, King Saud University, Riyadh. Strains were grown aerobically at 37° C. with shaking in Muller Hilton media.
(§2) The agar diffusion method was used to examine the synthesized ssTAMP's antibacterial activity. Pure colonies of Bacillus subtilis, Streptococcus pneumonia, Staphalycoccus aureus, Streptococcus mutans, Escherichia coli, and Kleibsella pneumonia were used for antibacterial susceptibility testing according to Clinical Laboratory Standards Institute (CLSI) 2021 guidelines by using a modified Kirby-Bauer disk diffusion technique. In brief, homogeneous colonies were chosen from each microbial strain and grown on Mullar Hilton broth at log phase. 0.5 McFarland standard culture was used to spread on to the Mullar Hilton agar plates. Freshly prepared 30 μl each of Kanamycin 10 μg/ml and ssTAMP 100 μg/ml was poured into 6 mm diameter well, blank well with equivalent amount of saline served as a […]. The plates were incubated for 24 hours, and the diameter of the inhibition zone was measured to determine if the findings were susceptible or resistant. The full analysis was carried out three times.
(§3) The agar diffusion method was used to test antimicrobial susceptibility of sSTAMP against B. Subtilis, S. Pneumoniae, S. Aureus, S. Mutans, E. Coli, and Kleibsella pneumonia strains (FIG. 1).

For a further series, the system named is Escherichia coli. Description: microbe, parasite or virus in culture. The note with it: E. coli, 30 μl in 6 mm well, ssTAMP 100 μg/ml, Kanamycin 10 μg/ml, 24 hours, mean±SD, n=3. Format: cell-based. The protocol: as §1, §2, §3
A further series concerns Staphylococcus aureus. The series can be described thus: microbe, parasite or virus in culture. The series is classed as cell-based. The note with it: S. aureus, 30 μl in 6 mm well, ssTAMP 100 μg/ml, Kanamycin 10 μg/ml, 24 hours, mean±SD, n=3. The protocol: as §1, §2, §3
The test system of another series is Streptococcus mutans. The series can be described thus: microbe, parasite or virus in culture. Format: cell-based. The note with it: S. mutans, 30 μl in 6 mm well, ssTAMP 100 μg/ml, Kanamycin 10 μg/ml, 24 hours, mean±SD, n=3. On the procedure:
as §1, §2, §3

A further series relates to Streptococcus pneumonia. The series can be described thus: microbe, parasite or virus in culture. The series is classed as cell-based. The note with it: S. pneumonia, 30 μl in 6 mm well, ssTAMP 100 μg/ml, Kanamycin 10 μg/ml, 24 hours, mean±SD, n=3. On the procedure: as §1, §2, §3
In series [1] the test system is Kleibsella pneumonia. The series can be described thus: organism not typed. The note with it: 30 μl in 6 mm well, ssTAMP 100 μg/ml, Kanamycin 10 μg/ml, 24 hours, mean±SD, n=3. The series is classed as cell-based. The protocol: as §1, §2, §3
In a further series the test system is A549 lung cancer cells. Format: cell-based. The note with it: human, 24 h. The protocol: (§4) MCF-7 and A549 cells were cultured under aseptic conditions at 37° C. and 5% CO2 using Dulbecco's Modified Eagle's Medium (DMEM), accompanied with 1% mixture of “Penicillin-Streptomycin”, and 10% Fetal Bovine Serum (FBS). The cells were processed and grown in a sterile environment and all the procedures were done in a biosafety cabinet. The cells were harvested using 0.25% trypsin containing EDTA and phenol red, once they reached around 80% confluency. To test the in-vitro toxicity of the antimicrobial peptide, the harvested cells were seeded in 96 well plates for conducting a cell viability assay using MTT (3-(4,5-dimethylthiazol-2-yl)-2,5-diphenyl tetrazolium bromide).
(§5) In order to investigate the in-vitro cytotoxicity of ssTAMP using the MTT assay, cell viability was carried out in MCF-7 and A549 cells. To achieve a cell density of 5×10^5 cells/mL, trypsin was introduced to the cells during their exponential phase of growth. After that, 100 μL of media and the cell suspension (15000 cells/well) were placed on a flat-bottomed microplate, where they were left to attach to the bottom overnight. The following day, 10 μL of freshly prepared medium containing ssTAMP concentrations ranging from 7.81 to 1000 µg/mL was added to the preexisting medium. As a negative control, a triplicate of untreated, FBS-free DMEM were used. Each product's dilution was tested three times. After 24 hours, the media was carefully removed from the wells. After that, 10 μL of MTT solution (5 mg/mL in PBS) and 90 μL of the medium were added. After that, this combination was incubated for 4 hours at room temperature. The medium and MTT in the culture fluid were then drawn out, leaving the formazan crystal precipitate. Formazan was dissolved for 15 minutes at room temperature in a […]. At 570 nm, the absorbance was measured (Synergy HT, BioTek Inst., VT, USA). Cell viability was calculated as a percentage of the absorbance when compared with negative control considered as 100%. The cytotoxic effects of ssTAMP on MCF-7 and A549 cells were expressed as IC50 values.
(§6) The percentage cell viabilities of MCF-7 breast cancer cells and A549 lung cancer cells against varying concentrations of ssTAMP are presented in FIGS. 3A-3B. […] The cytotoxicity starts to appear at the lowest concentration of ssTAMP used (7.81 μg/mL in MCF-7, and 15.62 μg/mL in A549). The effect pattern of the ssTAMP in both the cell lines is similar up to the concentration of 250 μg/mL. However MCF-7 appear to be more sensitive at higher concentrations of ssTAMP above 250 μg/mL.

For series [2], the system named is MCF-7 breast cancer cells. Format: cell-based. The note with it: human, 24 h. The protocol:
as §4, §5, §6

Series [3] has as its system B. subtilis.
Series [4] has as its system S. pneumonia.
Series [5] has as its system S. aureus.
The test system of series [6] is S. mutans.
Series [7] deals with E. coli.
Series [8] relates to Kleibsella pneumonia.
The test system of series [9] is Kleibsella pneumonia. The series can be described thus: organism not typed. The note with it: read-out: Minimum Inhibitory concentration.
The test system of series [10] is B. subtilis. The series can be described thus: microbe, parasite or virus in culture. The note with it: Bacillus subtilis, read-out: Minimum Inhibitory concentration.
Series [11] concerns S. pneumonia. Description: microbe, parasite or virus in culture. The note with it: Streptococcus pneumoniae, read-out: Minimum Inhibitory concentration.
Series [12] has as its system S. aureus. The series can be described thus: microbe, parasite or virus in culture. The note with it: Staphylococcus aureus, read-out: Minimum Inhibitory concentration.
The subject of series [13] is S. mutans. Description: microbe, parasite or virus in culture. The note with it: Streptococcus mutans, read-out: Minimum Inhibitory concentration.
Series [14] has as its system E. coli. The series can be described thus: microbe, parasite or virus in culture. The note with it: Escherichia coli, read-out: Minimum Inhibitory concentration.
[15] abbreviates: B. subtilis, microdilution, overnight 37° C., mean±SD, n=3.
Setting [16] is: S. pneumonia, microdilution, overnight 37° C., mean±SD, n=3.
The mark [17] stands for this setting: S. mutans, microdilution, overnight 37° C., mean±SD, n=3.
Setting [18] is: E. coli, microdilution, overnight 37° C., mean±SD, n=3.
[19] abbreviates: Kleibsella pneumonia, microdilution, overnight 37° C., mean±SD, n=3.

Turning to `CC[C@H](C)[C@H](NC(=O)[C@H](CCCNC(=N)N)NC(=O)[C@H](CCCCN)NC(=O)[C@]1(C)CCCC=CCCC[C@](C)(NC(=O)[C@H](CCCCN)NC(=O)[C@H](CCC(=O)O)NC(=O)[C@H](CCCCN)NC(=O)[C@H](CO)NC(=O)[C@H](CCCCN)NC(=O)[C@H](CCCNC(=N)N)NC(=O)[C@H](Cc2ccccc2)NC(=O)[C@H](Cc2ccccc2)NC(=O)CNC(=O)CNC(=O)[C@H](CC(N)=O)NC(=O)[C@H](CCCNC(=N)N)NC(=O)[C@H](Cc2ccccc2)NC(=O)[C@@H](NC(=O)[C@H](C)NC(=O)[C@@H](NC(=O)[C@H](CC(=O)O)NC(=O)[C@H](CCCCN)NC(=O)[C@H](CCC(=O)O)NC(=O)CNC(=O)[C@@H](NC(=O)[C@H](CO)NC(=O)[C@@H]2CCCN2C(=O)[C@@H](N)CC(C)C)[C@@H](C)O)[C@@H](C)O)C(C)C)C(=O)NCC(=O)N[C@@H](CCCCN)C(=O)N[C@@H](CCC(=O)O)C(=O)N1)C(=O)N[C@H](C(N)=O)C(C)C` [ssTAMP] (H-LPSTGEKDTAVFRNGGFFRKSKEK[S5]GKE[S5]KRIV-NH2; staple 25-29; N-terminus assumed), the Zone of inhibition in the series with Bacillus subtilis turned out to be 20.63±0.85 mm; in the series with Escherichia coli it was 24.30±1.08 mm; in the series on Staphylococcus aureus it was 9.60±0.32 mm; with Streptococcus mutans, 22.23±1.39 mm; in the series with Streptococcus pneumonia, 20.17±0.72 mm; with Kleibsella pneumonia [1] it was 23.47±1.40 mm. Also, the “IC50, cytotoxicity by MTT assay” value with A549 lung cancer cells was 265.0 µg/mL; in series [2], 558.2 µg/mL. For the same molecule, the cells viable result (in the series on A549 lung cancer cells (250 μg/ml); in [2] (250 μg/ml)) was “more than 50%” in each case. Besides, the “Minimum Inhibitory concentration” value in the series on B. subtilis [3] is 8.33 ± 2.08 µg/mL; in the series with B. subtilis [3] (setting [15]), 8.33 ± 2.08 µg/mL; with S. pneumonia [4] it was 10.42 ± 2.08 µg/mL; in the series with S. pneumonia [4] (setting [16]) it was 10.42 ± 2.08 µg/mL; in the series on S. aureus [5] it was 12.50 ± 0.000 µg/mL; in the series with S. aureus [5] (S. aureus, microdilution, overnight 37° C., mean±SD, n=3), 12.50 ± 0.000 µg/mL. For the same molecule, the “Minimum Inhibitory concentration” value in the series on S. mutans [6] turned out to be 8.33 ± 2.08 µg/mL; in the series with S. mutans [6] (setting [17]), 8.33 ± 2.08 µg/mL; with E. coli [7], 5.21 ± 1.05 µg/mL; in the series with E. coli [7] (setting [18]), 5.21 ± 1.05 µg/mL; with Kleibsella pneumonia [8], 5.21 ± 1.042 µg/mL; in the series with Kleibsella pneumonia [8] (setting [19]), 5.21 ± 1.042 µg/mL.

Consider `NC[C@H]1O[C@H](O[C@H]2[C@H](O)[C@@H](O[C@H]3O[C@H](CO)[C@@H](O)[C@H](N)[C@H]3O)[C@H](N)C[C@@H]2N)[C@H](O)[C@@H](O)[C@@H]1O` [Kanamycin], for which the Zone of inhibition in the series on Bacillus subtilis worked out at 16.40 ± 0.46 mm; with Escherichia coli, 14.90 ± 0.25 mm; with Staphylococcus aureus, 16.07 ± 0.45 mm; in the series on Streptococcus mutans it was 18.37 ± 0.58 mm; with Streptococcus pneumonia, 15.70 ± 0.4 mm; in the series on Kleibsella pneumonia [1], 15.10 ± 0.74 mm. In addition, the zone of inhibition at 10 µg/mL in the series on Bacillus subtilis (Bacillus subtilis) was found to be 16.4 ± 0.46 mm; with Escherichia coli (Escherichia coli), 14.9 ± 0.25 mm; with Staphylococcus aureus (Staphylococcus aureus), 16.1 ± 0.45 mm; in the series on Streptococcus mutans (Streptococcus mutans), 18.4 ± 0.58 mm; in the series with Streptococcus pneumonia (Streptococcus pneumoniae) it was 15.7 ± 0.4 mm; in the series with Kleibsella pneumonia [1] it was 15.1 ± 0.74 mm. Further, the “Minimum Inhibitory concentration” value with B. subtilis [3] (setting [15]) was determined as 1.67 ± 0.42 µg/mL; in the series on S. pneumonia [4] (setting [16]), 1.67 ± 0.42 µg/mL; in the series on S. mutans [6] (setting [17]), 1.04 ± 0.21 µg/mL; with E. coli [7] (setting [18]) it was 1.46 ± 0.55 µg/mL; in the series on Kleibsella pneumonia [8] (setting [19]), 1.25 ± 0.00 µg/mL. In addition, the MIC in the series with Kleibsella pneumonia [9] came to 1.25 µg/mL (≈ 2.58 µM); with B. subtilis [10], 1.67 ± 0.42 µg/mL (≈ 3.45 µM); in the series with S. pneumonia [11], 1.67 ± 0.42 µg/mL (≈ 3.45 µM); with S. aureus [12], 1.67 ± 0.42 µg/mL (≈ 3.45 µM); in the series on S. mutans [13], 1.04 ± 0.21 µg/mL (≈ 2.15 µM); in the series with E. coli [14] it was 1.46 ± 0.55 µg/mL (≈ 3.01 µM).

For orientation: zone of inhibition means the extent of the growth-free halo in a diffusion test. Higher therefore signals wide suppression of growth.
